Reference: BindingDB's records for doi:10.1016/j.bmcl.2009.01.088 (Abbott Laboratories, 2009)

Molecular target: Mitogen-activated protein kinase kinase kinase 8 (Homo sapiens, UniProt P41279)
Assay: COT HTRF Assay
Conditions: pH 7.5; 22 °C
Description: The COT direct HTRF assay was carried out using biotin-MEK1 as a substrate. The reaction was carried out in black 96 half-well plates. At designated time points, EDTA was added to quench the reaction. Detection reagents were then added to each well to make anti-phospho-MEK1-Eu antibody and SAXL. The plates were incubated, and then read using the RUBYstar HTRF reader.

Sequence of Mitogen-activated protein kinase kinase kinase 8 (P41279 whole entry): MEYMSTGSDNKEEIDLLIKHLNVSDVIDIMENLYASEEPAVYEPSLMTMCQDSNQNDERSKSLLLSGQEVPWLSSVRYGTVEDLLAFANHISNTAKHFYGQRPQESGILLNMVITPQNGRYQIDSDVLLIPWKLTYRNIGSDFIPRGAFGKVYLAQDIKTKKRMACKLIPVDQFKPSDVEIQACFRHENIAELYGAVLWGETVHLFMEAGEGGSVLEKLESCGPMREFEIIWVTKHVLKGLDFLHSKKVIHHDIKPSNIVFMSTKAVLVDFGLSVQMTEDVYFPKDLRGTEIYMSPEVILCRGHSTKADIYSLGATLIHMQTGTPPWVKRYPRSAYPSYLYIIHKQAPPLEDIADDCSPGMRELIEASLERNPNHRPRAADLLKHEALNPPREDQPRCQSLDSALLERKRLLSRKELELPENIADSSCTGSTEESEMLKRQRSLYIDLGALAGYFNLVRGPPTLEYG

O=C(O)c1cc2c(Oc3ccc(I)cc3)cncc2s1
IC50: 1000 nM
